Molecules are shown by their SMILES. Like-named read-outs stand apart in the source and are kept apart here. Where only a bound is given, the exact number is not on record here.

The record followed here is patent US11447522B2, “Potent soft anti-inflammatory corticosteroid compounds and uses thereof” (Bodor Laboratories, Inc., priority 2017, dated 2022).

For series [1], the system named is ovalbumin sensitized and challenged Brown Norway rats. Nature of the series: Airway changes of ovalbumin sensitized and challenged Brown Norway rats, intratracheal administration. Format: in vivo. Conditions: for AHR (airways hyperreactivity) ED50: relative response to maximal acetylcholine dose.
For series [2], the system named is TNF α-production of LPS-stimulated blood cells. The series can be described thus: TNF-α production of lipopolysaccharide-stimulated human blood. Format: cell-based. As for the experimental part:
(§1) The in vitro anti-inflammatory effect of ED and its analogs was assessed using LPS-induced TNF α-release under various conditions (diluted or undiluted whole human blood, preincubation with sera) to determine the intrinsic anti-inflammatory activity and systemic biological stability of the various compounds.
(§2) Commercially available human cytokine ELISA sets were used. TNF-α and GM-CSF sets were purchased from BD Pharmingen, San Diego, Calif., USA) and the IL-1β set was obtained from R&D Systems (Minneapolis, Minn., USA). ELISA was performed according to the manufacturer's protocol. Cell-free supernatants were tested in duplicate. Detection limits were 7.8 pg/ml for TNF-α, 4.7 pg/ml for GM-CSF, and 3.9 pg/ml for IL-1β. Results were expressed as the mean percentage of inhibition. IC50 values for test compounds were calculated by linear regression.
Peripheral blood from healthy donors was collected aseptically into sterile heparinized (Vacutainer™) tubes. Whole blood samples from each individual were parallel used both undiluted and after 5-fold dilution with RPMI-1640 medium in every experiment. Blood samples were distributed into 24-well plates and incubated with serial concentrations of the test compounds and 1 μg/ml lipopolysaccharide for 24 h at 37° C. in a CO2 thermostat. Controls were treated with lipopolysaccharide and the vehicle (PBS or 0.01% dimethyl sulfoxide in PBS). After incubation, cell-free supernatants were separated by centrifugation (1000 g for 10 minutes) and stored at −20° C. until determination of the amount of TNF-α. Test compounds were examined in blood samples from five different individuals. Two parallel cultures per treatments were run.

Series [3] deals with mitogen-induced proliferation of PBMC. Nature of the series: Proliferation of lectin-stimulated peripheral mononuclear cells. Format: cell-based, human. Conditions: read-out: Prolif.**: Inhibition of mitogen-induced proliferation of PBMC. As for the experimental part: Mononuclear cells from heparinized peripheral blood of healthy donors were isolated on suitable gradient (Optiprep solution, 1.077 g/ml). Serial dilutions of the test compounds (ranging from 2×10^−6 to 2×10^−8 M) were made in 100 μl of medium per well of sterile round-bottomed 96-well microtiter plate. Control wells contained culture medium only. 100 μl of cell suspension (10^6 cells/ml), containing concanavalin A (2 μg/ml) was added to each well. […] All cultures were done in triplicate. Microtiter plates were incubated for 72 h at 37° C., in 5% CO2 containing humidified atmosphere. For the last 18 h of incubation, [^3H]thymidine was added to the cells cultures, at 0.1 μCi/well final concentration. At the end of the incubation, cells were harvested to glass microfiber filter (Whatman G/F) and associated radioactivity was determined by liquid scintillation.

In series [4] the test system is TNF-α production of LPS-stimulated whole blood cells. Nature of the series: Stability: inhibition of TNF-α production with or without preincubation of the compounds in human plasma/serum. Type of series: cell-based. The method, then:
as §1, §2
Mononuclear cells from peripheral blood of healthy donors were isolated on Ficoll-gradient. One million cells in 0.9 ml of RPMI 1640 medium were distributed into 24-well plates and serial concentrations of the test compounds, made in fresh human serum either instantly or 18 h previously, were added (0.05 ml) together with the lipopolysaccharide (0.05 ml; 1 μg/ml final concentration). Preincubation of the compounds with serum was carried out at 37° C. Processing of the cultures was done as described above.

A short description of series [5]: Stability in the presence of human plasma (HPLC/MS/MS). Type of series: in vitro ADME. The following applies: 37° C. As for the experimental part:
Etiprednol dicloacetate (BNP-166) was added to freshly prepared human plasma of healthy donors at a concentration of 5 ng/ml, and were incubated at 37° C. for different intervals. After incubation the amount of the original compound (ethyl-17α-dichloroacetoxy-11β-hydroxyandostra-1,4-diene-3-one-17β-carboxylate), and one of its main metabolite, M-OH (17α,11β-dihydroxyandostra-1,4-diene-3-one-17β-carboxylate) were determined using an HPLC/MS/MS method. In brief: Fluocinolone acetonide served as internal standard (20 ng/ml), samples were extracted with a liquid-liquid extraction on Extrelut® columns, and were separated on a Purospher STAR 30×2 mm (3 μm) reversed phase column at a flow rate of 0.3 ml/min, using a linear gradient with a mobile phase system containing acetonitrile, water and acetic acid. Determination were performed on a triple quadrupole mass spectrometer (Perkin-Elmer SCIEX API 2000) supplied with an electrospray interface operated in the positive ionization mode. The multiple ion monitoring, parent→daughter ion transitions of 485.2→265.2, 375.2→265.2 and 495.2→337.2 were used for the quantification of etiprednol dicloacetate, its M-OH metabolite and for the internal standard respectively. Results are expressed as peak areas normalized to the internal control. Stability of the selected ED analogs (10, 11, 13, 17, 21, 25) were determined as described above for ED (3).

Where [6] appears, read: intratracheal, 2 hours prior challenge.
[7] abbreviates: intratracheal, 2 hours prior challenge, minimal statistically significantly effective dose.
[8] abbreviates: diluted blood 1:5, read-out: TNFα* a: Inhibition of TNF α-production of LPS-stimulated blood cells.
Where [9] appears, read: undiluted blood, read-out: TNFα* b: Inhibition of TNF α-production of LPS-stimulated blood cells.
[10] abbreviates: non-preincubated in human plasma, read-out: Stability*** c: Inhibition of TNF-α production of LPS-stimulated whole blood cells.
The mark [11] stands for this setting: preincubated overnight in human plasma, read-out: Stability*** d: Inhibition of TNF-α production of LPS-stimulated whole blood cells.

As to `CCC(=O)O[C@]1(C(=O)SCF)[C@H](C)C[C@H]2[C@@H]3C[C@H](F)C4=CC(=O)C=C[C@]4(C)[C@@]3(F)[C@@H](O)C[C@@]21C` [FLU, fluticasone propionate], in series [1] (setting [6]), the “Edema formation ED50” value was 2.8 µg/kg, the “Eosinophilia BALF ED50” value was more than 100 µg/kg, the “Eosinophilia Peribronchial ED50” value was 10.5 µg/kg and the “Eosinophilia Perivascular ED50” value stood at 45.0 µg/kg. In series [1] (setting [6]), the “Mucus production ED50” value was less than 1.0 µg/kg; the “Mucus production, second line (dose type not given)” value stood at 1.0 µg/kg; the “AHR (airways hyperreactivity) ED50” value came out at 0.14 µg/kg. Besides, the “BALF protein ED50” value in series [1] (intratracheal, 2 hours prior challenge, broncho-alveolar lavage fluid) was found to be 11.2 µg/kg. In addition, in series [1] (setting [7]), the “AHR (airways hyperreactivity) MSED” value turned out to be 0.1 µg/kg, the “BALF protein MSED” value came to 10.0 µg/kg, the “Edema formation MSED” value turned out to be 1.0 µg/kg and the “Eosinophilia BALF MSED” value is 10.0 µg/kg. In addition, in series [1] (setting [7]), the “Eosinophilia Peribronchial MSED” value was 1.0 µg/kg and the “Eosinophilia Perivascular MSED” value was 10.0 µg/kg.
As to `CC1CC2C3CC(F)C4=CC(=O)C=CC4(C)C3(F)C(O)CC2(C)C1(OC(=O)C(Cl)Cl)C(=O)SCCl` (stereo not drawn) [Compound 26, S-Chloromethyl 17α-dichloroacetoxy-6α,9α-difluoro-11β-hydroxy-16α-methyl-3-oxoandrosta-1,4-diene-17β-carbothioate], the IC50 in series [2] (setting [8]) turned out to be 6 nM; in series [2] (setting [9]), 12 nM; in series [3], 3 nM.
On the same counts, the results for `COC(=O)C1(OC(=O)C(Cl)Cl)C(C)CC2C3CC(F)C4=CC(=O)C=CC4(C)C3(F)C(O)CC21C` (stereo not drawn) [Compound 14, Methyl 6α,9α-difluoro-17α-dichloroacetoxy-16β-methyl-11β-hydroxy-3-oxoandrosta-1,4-diene-17β-carboxylate] are 0.8 ± 0.6 nM, 1.7 ± 0.9 nM and less than 0.01 nM.
On the same counts, the results for `C[C@@H]1C[C@H]2[C@@H]3C[C@H](F)C4=CC(=O)C=C[C@]4(C)[C@@]3(F)[C@@H](O)C[C@]2(C)[C@@]1(OC(=O)C(Cl)Cl)C(=O)OCCl` [Compound 22, Chloromethyl 17α-dichloroacetoxy-6α,9α-difluoro-11β-hydroxy-16α-methyl-3-oxoandrosta-1,4-diene-17β-carboxylate] are 4 nM, 4 nM and 0.02 nM.
`C[C@H]1C[C@H]2[C@@H]3CCC4=CC(=O)C=C[C@]4(C)[C@@]3(F)[C@@H](O)C[C@]2(C)[C@@]1(OC(=O)C(Cl)Cl)C(=O)OCCO` [Compound 13, 2-Hydroxyethyl 17α-dichloroacetoxy-9α-fluoro-16β-methyl-11β-hydroxy-3-oxoandrosta-1,4-diene-17β-carboxylate]: the IC50 was 4.5 nM in series [4] (setting [10]), 53.5 nM in series [4] (setting [11]), 4.6 ± 6 nM in series [2] (setting [8]) and 5.8 ± 5 nM in series [2] (setting [9]). The “potency and softness compared with the corresponding compounds 11 and 15” value in series [4] (see Table 1) is on record as “more potent but softer”. The “stability in the presence of human plasma” value in series [5] is given as “particularly stable”.
With `COC(=O)[C@@]1(OC(=O)C(Cl)Cl)[C@@H](C)C[C@H]2[C@@H]3CCC4=CC(=O)C=C[C@]4(C)[C@@]3(F)[C@@H](O)C[C@@]21C` [Compound 10, Methyl 17α-dichloroacetoxy-9α-fluoro-16β-methyl-11β-hydroxy-3-oxoandrosta-1,4-diene-17β-carboxylate], the IC50 in series [4] (setting [10]) was 1.7 nM; in series [4] (setting [11]), 10.2 nM; in series [2] (setting [8]), 4 ± 3 nM; in series [2] (setting [9]) it was 20 ± 10 nM; in series [3], less than 0.01 nM.
As for `C[C@H]1C[C@H]2[C@@H]3C[C@H](F)C4=CC(=O)C=C[C@]4(C)[C@@]3(F)[C@@H](O)C[C@]2(C)[C@@]1(OC(=O)C(Cl)Cl)C(=O)OCCl` [Compound 16, Chloromethyl 6α,9α-difluoro-17α-dichloroacetoxy-16β-methyl-11β-hydroxy-3-oxoandrosta-1,4-diene-17β-carboxylate], the IC50 in series [2] (setting [8]) stood at 0.4 nM; in series [2] (setting [9]), 5.1 ± 1.7 nM; in series [3] it was 26 ± 26 nM.
Turning to `C[C@@H]1C[C@H]2[C@@H]3C[C@H](F)C4=CC(=O)C=C[C@]4(C)[C@@]3(F)[C@@H](O)C[C@]2(C)[C@@]1(OC(=O)C(Cl)Cl)C(=O)OCF` [Compound 21, Fluoromethyl 17α-dichloroacetoxy-6α,9α-difluoro-11β-hydroxy-16α-methyl-3-oxoandrosta-1,4-diene-17β-carboxylate], the IC50 amounted to 1.4 nM in series [4] (setting [10]); 25 nM in series [4] (setting [11]); 1.4 nM in series [2] (setting [8]); 4.5 nM in series [2] (setting [9]); 9 nM in series [3]. Further, the “stability in the presence of human plasma” value in series [5] was “particularly stable”.
With `CCOC(=O)[C@@]1(OC(=O)C(Cl)Cl)[C@@H](C)C[C@H]2[C@@H]3CCC4=CC(=O)C=C[C@]4(C)[C@@]3(F)[C@@H](O)C[C@@]21C` [Compound 11, Ethyl 17α-dichloroacetoxy-9α-fluoro-16β-methyl-11β-hydroxy-3-oxoandrosta-1,4-diene-17β-carboxylate], in series [1] (Table 2 parameters), the “overall in vivo activity compared with the parent steroid” value is “does not represent significant improvement over ED, except in mucus production”. Besides, in series [1] (setting [6]), the “Edema formation ED50” value amounted to 93 µg/kg, the “Eosinophilia BALF ED50” value is more than 100 µg/kg, the “Eosinophilia Peribronchial ED50” value is 10.3 µg/kg and the “Mucus production ED50” value is less than 1 µg/kg. Further, in series [1] (setting [6]), the “Mucus production, second line (dose type not given)” value is less than 1 µg/kg and the “AHR (airways hyperreactivity) ED50” value worked out at 19.4 µg/kg. Further, in series [1] (setting [7]), the “AHR (airways hyperreactivity) MSED” value was 20.0 µg/kg, the “Edema formation MSED” value came to 0.5 µg/kg and the “Eosinophilia Peribronchial MSED” value came out at 12.0 µg/kg. In series [4] (setting [10]), the IC50 turned out to be 16 nM. Also, the IC50 in series [4] (setting [11]) was 18 nM. Further, the IC50 in series [2] (setting [8]) was 1.7 ± 2 nM. In addition, in series [2] (setting [9]), the IC50 turned out to be 7.1 ± 4 nM. Moreover, the IC50 in series [3] came to 0.012 nM.
As for `C[C@H]1C[C@H]2[C@@H]3CCC4=CC(=O)C=C[C@]4(C)[C@@]3(F)[C@@H](O)C[C@]2(C)[C@@]1(OC(=O)C(Cl)Cl)C(=O)OCCl` [Compound 12, Chloromethyl 17α-dichloroacetoxy-9α-fluoro-16β-methyl-11β-hydroxy-3-oxoandrosta-1,4-diene-17β-carboxylate], the IC50 was found to be 20 ± 8 nM in series [2] (setting [8]), 35 ± 12 nM in series [2] (setting [9]) and 0.05 ± 0.12 nM in series [3].
For `CCOC(=O)[C@@]1(OC(=O)C(Cl)Cl)[C@@H](C)C[C@H]2[C@@H]3C[C@H](F)C4=CC(=O)C=C[C@]4(C)[C@@]3(F)[C@@H](O)C[C@@]21C` [Compound 15, Ethyl 6α,9α-difluoro-17α-dichloroacetoxy-16β-methyl-11β-hydroxy-3-oxoandrosta-1,4-diene-17β-carboxylate] the same measures were 2 nM, 14 nM and less than 0.01 nM.
